Patent US9616099B2, “Cyclosporin analogues for preventing or treating hepatitis C infection” (Enanta Pharmaceuticals, Inc., priority 2013, dated 2017)
Numbered stars: 1 amine (or outer) side, 2 acyl side, 3 side chain; on linkers, the order of the positions; unused ones are H or OH. Square brackets hold non-standard residues; d marks the D form. Peptide text beside a SMILES is read from it. * marks the point of attachment. X2 = CON(C)C(=O)OCCCC[C@@H](C)[C@@H](O)[C@@H](C(=O)[*:2])N(C)[*:1]; X10 = C[C@H](CCOC(=O)NC1CC1)[C@@H](O)[C@@H](C(=O)[*:2])N(C)[*:1]; X5 = C[C@H](CCCCOC(=O)N(C)C)[C@@H](O)[C@@H](C(=O)[*:2])N(C)[*:1]; X9 = C[C@H](CCCCN=[N+]=[N-])[C@@H](O)[C@@H](C(=O)[*:2])N(C)[*:1]; X7 = CCOC(=O)NCCCC[C@@H](C)[C@@H](O)[C@@H](C(=O)[*:2])N(C)[*:1]; X8 = CCOC(=O)OCCCC[C@@H](C)[C@@H](O)[C@@H](C(=O)[*:2])N(C)[*:1]; X1 = COC(=O)NCCCC[C@@H](C)[C@@H](O)[C@@H](C(=O)[*:2])N(C)[*:1]; X4 = COC(=O)OCCCC[C@@H](C)[C@@H](O)[C@@H](C(=O)[*:2])N(C)[*:1]; X3 = CC(=O)NCCCC[C@@H](C)[C@@H](O)[C@@H](C(=O)[*:2])N(C)[*:1]; NMe(dihydroBmt) = CCCC[C@@H](C)[C@@H](O)[C@H](NC)C(=O)O; X6 = C[C@H](CCCCN)[C@@H](O)[C@@H](C(=O)[*:2])N(C)[*:1]; Butyl(4-morpholino) = C(CC*)CN1CCOCC1; NMeT = CN[C@H](C(=O)O)[C@@H](C)O; NMeL = CN[C@@H](CC(C)C)C(=O)O; NMeV = CN[C@H](C(=O)O)C(C)C; dNMeA = CN[C@H](C)C(=O)O; Abu = CC[C@H](N)C(=O)O

system: HCV 1a genotype replicon; assay: microbe, parasite or virus in culture; assay type: cell-based; details: Hepatitis C virus; HCV genotype 1a replicon, luciferase assay, 72 hours; read-out: EC50 (Ia) Genotype-1a Replicon EC50

Row | Compound | EC50
1 | CC[C@@H]1NC(=O)[C@H]([C@H](O)[C@H](C)CCCCN)N(C)C(=O)[C@H](C(C)C)N(C)C(=O)[C@H](CC(C)C)N(C)C(=O)[C@H](CC(C)C)N(C)C(=O)[C@@H](C)NC(=O)[C@H](C)NC(=O)[C@H](CC(C)C)N(C)C(=O)[C@H](C(C)C)NC(=O)[C@H]([C@@H](C)OCCCCN2CCOCC2)N(C)C(=O)[C@@H](C)N(C)C1=O [Example 69] (cyclo(A[dA][NMeL][NMeL][NMeV][X6][Abu][dNMeA][NMeT](Butyl(4-morpholino))V[NMeL])) | 100 to 1000 nM
2 | CCOC(=O)NCCCC[C@@H](C)[C@@H](O)[C@H]1C(=O)N[C@@H](CC)C(=O)N(C)[C@H](C)C(=O)N(C)[C@@H]([C@@H](C)OCCCCN2CCOCC2)C(=O)N[C@@H](C(C)C)C(=O)N(C)[C@@H](CC(C)C)C(=O)N[C@@H](C)C(=O)N[C@H](C)C(=O)N(C)[C@@H](CC(C)C)C(=O)N(C)[C@@H](CC(C)C)C(=O)N(C)[C@@H](C(C)C)C(=O)N1C [Example 72] (cyclo(A[dA][NMeL][NMeL][NMeV][X7][Abu][dNMeA][NMeT](Butyl(4-morpholino))V[NMeL])) | 10 to 100 nM
3 | CC[C@@H]1NC(=O)[C@H]([C@H](O)[C@H](C)CCOC(=O)NC2CC2)N(C)C(=O)[C@H](C(C)C)N(C)C(=O)[C@H](CC(C)C)N(C)C(=O)[C@H](CC(C)C)N(C)C(=O)[C@@H](C)NC(=O)[C@H](C)NC(=O)[C@H](CC(C)C)N(C)C(=O)[C@H](C(C)C)NC(=O)[C@H]([C@@H](C)OCCCCN2CCOCC2)N(C)C(=O)[C@@H](C)N(C)C1=O [Example 6] (cyclo(A[dA][NMeL][NMeL][NMeV][X10][Abu][dNMeA][NMeT](Butyl(4-morpholino))V[NMeL])) | > 1000 nM
4 | CCCC[C@@H](C)[C@@H](O)[C@H]1C(=O)N[C@@H](CC)C(=O)N(C)[C@H](C)C(=O)N(C)[C@@H]([C@@H](C)OCCCCN2CCOCC2)C(=O)N[C@@H](C(C)C)C(=O)N(C)[C@@H](CC(C)C)C(=O)N[C@@H](C)C(=O)N[C@H](C)C(=O)N(C)[C@@H](CC(C)C)C(=O)N(C)[C@@H](CC(C)C)C(=O)N(C)[C@@H](C(C)C)C(=O)N1C [Example 7] (cyclo(A[dA][NMeL][NMeL][NMeV][NMe(dihydroBmt)][Abu][dNMeA][NMeT](Butyl(4-morpholino))V[NMeL])) | 10 to 100 nM
5 | CC[C@@H]1NC(=O)[C@H]([C@H](O)[C@H](C)CCCCNC(C)=O)N(C)C(=O)[C@H](C(C)C)N(C)C(=O)[C@H](CC(C)C)N(C)C(=O)[C@H](CC(C)C)N(C)C(=O)[C@@H](C)NC(=O)[C@H](C)NC(=O)[C@H](CC(C)C)N(C)C(=O)[C@H](C(C)C)NC(=O)[C@H]([C@@H](C)OCCCCN2CCOCC2)N(C)C(=O)[C@@H](C)N(C)C1=O [Example 70] (cyclo(A[dA][NMeL][NMeL][NMeV][X3][Abu][dNMeA][NMeT](Butyl(4-morpholino))V[NMeL])) | 10 to 100 nM
6 | CCOC(=O)OCCCC[C@@H](C)[C@@H](O)[C@H]1C(=O)N[C@@H](CC)C(=O)N(C)[C@H](C)C(=O)N(C)[C@@H]([C@@H](C)OCCCCN2CCOCC2)C(=O)N[C@@H](C(C)C)C(=O)N(C)[C@@H](CC(C)C)C(=O)N[C@@H](C)C(=O)N[C@H](C)C(=O)N(C)[C@@H](CC(C)C)C(=O)N(C)[C@@H](CC(C)C)C(=O)N(C)[C@@H](C(C)C)C(=O)N1C [Example 64] (cyclo(A[dA][NMeL][NMeL][NMeV][X8][Abu][dNMeA][NMeT](Butyl(4-morpholino))V[NMeL])) | 10 to 100 nM
7 | CC[C@@H]1NC(=O)[C@H]([C@H](O)[C@H](C)CCCCN=[N+]=[N-])N(C)C(=O)[C@H](C(C)C)N(C)C(=O)[C@H](CC(C)C)N(C)C(=O)[C@H](CC(C)C)N(C)C(=O)[C@@H](C)NC(=O)[C@H](C)NC(=O)[C@H](CC(C)C)N(C)C(=O)[C@H](C(C)C)NC(=O)[C@H]([C@@H](C)OCCCCN2CCOCC2)N(C)C(=O)[C@@H](C)N(C)C1=O [Example 68] (cyclo(A[dA][NMeL][NMeL][NMeV][X9][Abu][dNMeA][NMeT](Butyl(4-morpholino))V[NMeL])) | 10 to 100 nM
8 | CC[C@@H]1NC(=O)[C@H]([C@H](O)[C@H](C)CCCCNC(=O)OC)N(C)C(=O)[C@H](C(C)C)N(C)C(=O)[C@H](CC(C)C)N(C)C(=O)[C@H](CC(C)C)N(C)C(=O)[C@@H](C)NC(=O)[C@H](C)NC(=O)[C@H](CC(C)C)N(C)C(=O)[C@H](C(C)C)NC(=O)[C@H]([C@@H](C)OCCCCN2CCOCC2)N(C)C(=O)[C@@H](C)N(C)C1=O [Example 71] (cyclo(A[dA][NMeL][NMeL][NMeV][X1][Abu][dNMeA][NMeT](Butyl(4-morpholino))V[NMeL])) | 10 to 100 nM
9 | CC[C@@H]1NC(=O)[C@H]([C@H](O)[C@H](C)CCCCOC(=O)OC)N(C)C(=O)[C@H](C(C)C)N(C)C(=O)[C@H](CC(C)C)N(C)C(=O)[C@H](CC(C)C)N(C)C(=O)[C@@H](C)NC(=O)[C@H](C)NC(=O)[C@H](CC(C)C)N(C)C(=O)[C@H](C(C)C)NC(=O)[C@H]([C@@H](C)OCCCCN2CCOCC2)N(C)C(=O)[C@@H](C)N(C)C1=O [Example 63] (cyclo(A[dA][NMeL][NMeL][NMeV][X4][Abu][dNMeA][NMeT](Butyl(4-morpholino))V[NMeL])) | 10 to 100 nM
10 | CC[C@@H]1NC(=O)[C@H]([C@H](O)[C@H](C)CCCCOC(=O)N(C)OC)N(C)C(=O)[C@H](C(C)C)N(C)C(=O)[C@H](CC(C)C)N(C)C(=O)[C@H](CC(C)C)N(C)C(=O)[C@@H](C)NC(=O)[C@H](C)NC(=O)[C@H](CC(C)C)N(C)C(=O)[C@H](C(C)C)NC(=O)[C@H]([C@@H](C)OCCCCN2CCOCC2)N(C)C(=O)[C@@H](C)N(C)C1=O [Example 66] (cyclo(A[dA][NMeL][NMeL][NMeV][X2][Abu][dNMeA][NMeT](Butyl(4-morpholino))V[NMeL])) | 10 to 100 nM
11 | CC[C@@H]1NC(=O)[C@H]([C@H](O)[C@H](C)CCCCOC(=O)N(C)C)N(C)C(=O)[C@H](C(C)C)N(C)C(=O)[C@H](CC(C)C)N(C)C(=O)[C@H](CC(C)C)N(C)C(=O)[C@@H](C)NC(=O)[C@H](C)NC(=O)[C@H](CC(C)C)N(C)C(=O)[C@H](C(C)C)NC(=O)[C@H]([C@@H](C)OCCCCN2CCOCC2)N(C)C(=O)[C@@H](C)N(C)C1=O [Example 65] (cyclo(A[dA][NMeL][NMeL][NMeV][X5][Abu][dNMeA][NMeT](Butyl(4-morpholino))V[NMeL])) | 10 to 100 nM
